The values below come from patent US20020028807A1, “Non-nucleoside reverse transcriptase inhibitors” (priority 2000, published 2002).

For assay [1], the target named is T1, HIV-1 RT wild-type (WT) (Human immunodeficiency virus type 1 group M subtype B, UniProt P03366).
T1 construct: an HIV RT clone pKRT2 containing only the RT p66 gene regulated by the lac operon/trc promoter; made in house; host or cells: E. coli JM109, vector pKK233-2
As to the kind of experiment: Reverse transcriptase (RT) assay, wild-type enzyme. The format is biochemical. The source says: (§1) Among the enzymes for which Human Immunodeficiency Virus (HIV-1) encodes is a reverse transcriptase (1), so-named because it transcribes a DNA copy from an RNA template. This activity can be quantitatively measured in a cell-free enzyme assay and is based upon the observation that reverse transcriptase is able to use a synthetic template poly r(C) primed with a biotinylated oligo d(G) to transcribe a radio-labelled DNA strand utilising 3H-dGTP as a substrate. The assay described below utilises the wild-type enzyme (which is the predominant form of the enzyme observed in patients infected with HIV-1) and can also be used with mutant RT enzymes (for example, Y181C, prepared by site-directed mutagenesis in which the tyrosine residue at codon 181 has been replaced by a cysteine residue) in analogous assay conditions. This assay allows compounds to be evaluated for their effectiveness at inhibiting the mutant enzymes.
(§2) Some HIV-1 IIIB clone BH10 RT mutants were provided by Dr. C.-K. Shih (Boehringer Ingelheim Pharmaceutials Inc., U.S.A.) in the vector pKK233-2 (Pharmacia). Briefly an HIV RT clone pKRT2 containing only the RT p66 gene regulated by the lac operon/trc promoter was obtained from Dr. W. Summers (Yale University) (2). A variety of specific amino acid substitutions were introduced into the wild-type RT gene by site-directed mutagenesis. RT clones were subcloned into the pKK233-2 bacterial expression vector. Clones provided included wild-type, Val106Ala, Tyr181Cys, Tyr188Cys, Tyr188Leu, Gly190Ala and Pro236Leu. Others were made in-house by site-directed mutagenesis of the pKK233-2 RT clones including Lys103Asn, Lys103Asn/Tyr181Cys, Lys103Asn/Leu100Ile, Lys103Asn/Pro225His, and Lys103Asn/Val108Ile.
(§3) Purification of recombinant reverse transcriptase was performed using a combination of methods previously described (3). A single colony from a fresh plate of transformed JM109 cells was used to initiate growth of a pre-culture grown o/n at 37° C. Two liters of growth medium were inoculated with this pre-culture. At OD600˜1.5 (5-6 h at 37° C.), RT gene expression was induced with IPTG (1 mM final), and the fermentation was continued for a few more hours at 37° C. After centrifugation, supernatants were discarded while cell pellets were pooled and stored at −80° C. until purification. Cells were thawed at 4° C. overnight and suspended in lysis buffer (MES 50 mM pH 6, EDTA 1 mM, 10% v/v glyerol, 0.02% w/v OBG, 0.02% w/v sodium azide). Lysozyme was added and the mixture was incubated on ice for 40 minutes. After homogenization using a bounce in presence of lysozyme and sonication, the cells were centrifuged for 30 minutes. Supernatant (S1) was saved and stored at 4° C. The centrifuged pellet was resuspended in extraction buffer (MES 50 mM pH 6, KPO4 50 mM pH 6, KCl 100 mM, 10% v/v glycerol, 0.02% w/v OBG, 0.02% w/v sodium axide) and stirred for 30 minutes at 4° C. This second mixture was centrifuged again and the supernatant (S2) was saved. The above procedure was repeated 2 more times saving supernatants S3 and S4 and one last extraction was performed overnight (S5). Polymin P (0.005% final) was added to the combined supernatants to remove nucleic acids. This solution was stirred for 75 minutes at 4° C. and centrifuged for 1 h. The supernatant (SS1) was precipitated on ice with 20% w/v ammonium sulfate and stirred for 1 h at 4° C. The mixture was then centrifuged and the resulting supernatant (SS2) was precipitated with additional 40% w/v ammonium sulfate (60% total), stirred for 1 h and centrifuged again. The final pellet (P1) was stored overnight at 4° C. before undergoing purification the following day. All steps of the purification were performed at 4° C. unless otherwise stated.
(§4) Pellet (P1) was resuspended into MES 50 mM pH 6, KPO4 10 mM pH 6, KCl 100 mM, 10% v/v glycerol, 0.02% w/v OBG, 0.02% w/v sodium azide. The suspension was dialysis against the same buffer overnight using 12-14 kD MWCO dialysis tubing. […]

Assay [2] has as its target T2, HIV-1 RT K103N (Human immunodeficiency virus type 1 group M subtype B, UniProt P03366, K702N).
T2 construct: an HIV RT clone pKRT2 containing only the RT p66 gene regulated by the lac operon/trc promoter; made in house; host or cells: E. coli JM109, vector pKK233-2
In words: Reverse transcriptase (RT) assay, K103N mutant. The format is biochemical.
Excerpt: as §1, §2, §3, §4

For assay [3], the target named is T3, HIV-1 RT Y181C (Human immunodeficiency virus type 1 group M subtype B, UniProt P03366, Y780C).
T3 construct: an HIV RT clone pKRT2 containing only the RT p66 gene regulated by the lac operon/trc promoter; made in house; host or cells: E. coli JM109, vector pKK233-2
In words: Reverse transcriptase (RT) assay, Y181C mutant. The format is biochemical.
Excerpt: as §1, §2, §3, §4

The target in assay [4] is T4, HIV-1 RT V106A (Human immunodeficiency virus type 1 group M subtype B, UniProt P03366, V705A).
T4 construct: an HIV RT clone pKRT2 containing only the RT p66 gene regulated by the lac operon/trc promoter; made in house; host or cells: E. coli JM109, vector pKK233-2
In words: Reverse transcriptase (RT) assay, V106A mutant. It counts as biochemical.
Excerpt: as §1, §2, §3, §4

Assay [5] addresses T5, HIV-1 RT Y188L (Human immunodeficiency virus type 1 group M subtype B, UniProt P03366, Y787L).
T5 construct: an HIV RT clone pKRT2 containing only the RT p66 gene regulated by the lac operon/trc promoter; made in house; host or cells: E. coli JM109, vector pKK233-2
In words: Reverse transcriptase (RT) assay, Y188L mutant. It counts as biochemical.
Excerpt: as §1, §2, §3, §4

Assay [6] has as its target T6, HIV-1 RT K103N/Y181C (Human immunodeficiency virus type 1 group M subtype B, UniProt P03366, K702N/Y780C).
T6 construct: an HIV RT clone pKRT2 containing only the RT p66 gene regulated by the lac operon/trc promoter; made in house; host or cells: E. coli JM109, vector pKK233-2
As to the kind of experiment: Reverse transcriptase (RT) assay, K103N/Y181C mutant. It counts as biochemical.
Excerpt: as §1, §2, §3, §4

The target in assay [7] is T7, HIV-1 RT K103N/P225H (Human immunodeficiency virus type 1 group M subtype B, UniProt P03366, K702N/P824H).
T7 construct: an HIV RT clone pKRT2 containing only the RT p66 gene regulated by the lac operon/trc promoter; made in house; host or cells: E. coli JM109, vector pKK233-2
In words: Reverse transcriptase (RT) assay, K103N/P225H mutant. It counts as biochemical.
Excerpt: as §1, §2, §3, §4

For assay [8], the target named is T8, HIV-1 RT K103N/V108I (Human immunodeficiency virus type 1 group M subtype B, UniProt P03366, K702N/V707I).
T8 construct: an HIV RT clone pKRT2 containing only the RT p66 gene regulated by the lac operon/trc promoter; made in house; host or cells: E. coli JM109, vector pKK233-2
In words: Reverse transcriptase (RT) assay, K103N/V108I mutant. The format is biochemical.
Excerpt: as §1, §2, §3, §4

Assay [9] addresses T9, HIV-1 RT K103N/L100I (Human immunodeficiency virus type 1 group M subtype B, UniProt P03366, K702N/L699I).
T9 construct: an HIV RT clone pKRT2 containing only the RT p66 gene regulated by the lac operon/trc promoter; made in house; host or cells: E. coli JM109, vector pKK233-2
As to the kind of experiment: Reverse transcriptase (RT) assay, K103N/L100I mutant. It counts as biochemical.
Excerpt: as §1, §2, §3, §4

Assay [10] deals with HIV coding for wild-type reverse transcriptase (WT RT). As to the kind of experiment: ELISA (p24) assay of HIV replication in C8166 cell culture, wild-type RT virus. The format is cell-based, HIV-1. As to conditions: Human immunodeficiency virus 1, C8166, 72 h, read-out: EC50 WT RT. On the procedure: Compounds of the invention were tested for their ability to inhibit HIV replication in cell culture in a 96-well plate assay. Complete RPMI 1640, consisting of RPMI 1640+10% fetal bovine serum, 10 μg/ml gentamycin and 10 μM β-mercaptoethanol was used for dilution of the compound as well as cell growth medium. The T lymphocyte cell line C8166 was infected at a multiplicity of infection of 0.001 with viruses coding for wild-type and mutant reverse transcriptase. Cells were then incubated for three days in the presence of serial dilutions of the compounds of the invention. The supernatant was pooled from eight replica wells and the concentration of extracellular p24 was determined using a commercially available HIV-1 p24 antigen assay kit (Beckman-Coulter®). The level of inhibition (% inhibition) was calculated with the following equation: [formula]

Molecules are shown by their SMILES.

One may read the IC50 as the concentration that gives 50% inhibition. By EC50 is commonly meant the concentration giving half of the maximal effect. With `Cc1cc(F)nc2c1NC(=O)c1cc(CCOc3ccnc4ccccc34)cnc1N2C1CC1` [compound 5, 11-(Cyclopropyl)-5,11-dihydro-2-fluoro-4-methyl-8-{2-(4-quinolinyloxy)-ethyl}-6H-dipyrido[3,2-b:2′,3′-e][1,4]diazepin-6-one], the IC50 was determined as 19 nM in assay [1]; 37.5 nM in assay [2]; 76 nM in [3]; 61 nM in assay [4]; 2540 nM in assay [5]; 536 nM in assay [6]. Moreover, the half-maximal inhibitory concentration (IC50) was determined as 38 nM in [7], 38 nM in assay [8] and 98 nM in assay [9]. For the same molecule, the EC50 in [10] worked out at 0.83 nM.

As for `CCN1c2ncc(CCOc3ccnc4ccccc34)cc2C(=O)N(C)c2ccc(F)nc21` [compound 4, 5,11-Dihydro-11-ethyl-2-fluoro-5-methyl-8-{2-(4-quinolinyloxy)ethyl}-6H-dipyrido[3,2-b:2′,3′-e][1,4]diazepin-6-one], the IC50 amounted to 11 nM in [1]; 22.5 nM in assay [2]; 26 nM in assay [3]; 206 nM in assay [4]; 520 nM in [5]; 52 nM in assay [6]. Further, the half-inhibitory concentration (IC50) in assay [7] was 27 nM; in [8], 32 nM; in assay [9], 108 nM. Besides, in assay [10], the EC50 worked out at 0.98 nM.

As to `CN1C(=O)c2cc(CCOc3ccnc4ccccc34)cnc2N(C2CC2)c2nc(Cl)ccc21` [compound 6, 2-Chloro-11-cyclopropyl-5,11-dihydro-5-methyl-8-{2-(4-quinolinyloxy)-ethyl}-6H-dipyrido[3,2-b:2′,3′-e][1,4]diazepin-6-one], the IC50 in assay [1] stood at 25 nM.

In the case of `CCN1c2ncc(CCOc3ccnc4ccccc34)cc2C(=O)Nc2c(C)cc(F)nc21` [compound 7, 5,11-Dihydro-11-ethyl-2-fluoro-4-methyl-8-{2-(4-quinolinyloxy)ethyl}-6H-dipyrido[3,2-b:2′,3′-e][1,4]diazepin-6-one], the IC50 worked out at 9.8 nM in [1]; 26 nM in assay [2]; 38 nM in assay [3]; 74 nM in assay [4]; 4320 nM in [5]; 199 nM in assay [6]. Further, the concentration for half-maximal inhibition (IC50) was determined as 46 nM in assay [7], 45 nM in [8] and 98 nM in [9]. Moreover, in assay [10], the 50% effective concentration (EC50) turned out to be 1.1 nM.

For the molecule `CCN1c2ncc(CCOc3ccnc4ccccc34)cc2C(=O)Nc2c(C)cc(Cl)nc21` [compound 1, 2-Chloro-5,11-dihydro-11-ethyl-4-methyl-8-{2-(4-quinolinyloxy)ethyl}-6H-dipyrido[3,2-b:2′,3′-e][1,4]diazepin-6-one], the IC50 in assay [1] was 10.5 nM; in assay [2] it was 19 nM; in assay [3], 20 nM; in [4], 132 nM; in assay [5], 2740 nM; in assay [6], 52 nM. The results for the half-inhibitory concentration (IC50) in assay [7], in assay [8] and in [9] were 31.2 nM, 29 nM and 28.5 nM, respectively. The EC50 in assay [10] amounted to 2.6 nM.

`Cc1ccnc2c1NC(=O)c1cc(CCOc3cc[n+]([O-])c4ccccc34)cnc1N2C1CC1` [compound 15]: the concentration for half-maximal inhibition (IC50) was 61 nM in [1]; 66 nM in assay [2]; 226 nM in assay [3]; 206 nM in [4]; greater than 10000 nM in [5]; 1520 nM in assay [6]. The 50% inhibitory concentration (IC50) in assay [7] is 93 nM; in assay [8] it was 215 nM; in [9], 270 nM.

Regarding `CCN1C(=O)c2cc(CCOc3cc[n+]([O-])c4ccccc34)cnc2N(CC)c2ncccc21` [compound 27, 5,11-Dihydro-5,11-diethyl-8-{2-{(1-oxido-4-quinolinyl)oxy}ethyl}-6H-dipyrido[3,2-b:2′,3′-e][1,4]diazepin-6-one], the IC50 in assay [1] is 38 nM; in assay [4] it was 2270 nM; in assay [5] it was 5340 nM; in assay [6] it was 299 nM.

In the case of `CN1C(=O)c2cc(CCOc3cc[n+]([O-])c4ccccc34)cnc2N(C2CC2)c2nc(Cl)ccc21` [compound 10, 2-Chloro-11-cyclopropyl-5,11-dihydro-5-methyl-8-{2-{(1-oxido-4-quinolinyl)oxy}ethyl}-6H-dipyrido[3,2-b:2′,3′-e][1,4]diazepin-6-one], the IC50 worked out at 41 nM in [1]; 67 nM in assay [2]; 206 nM in assay [3]; 1370 nM in [4]; 1420 nM in [5]; 710 nM in [6]. Besides, the figures for the IC50 in [8] and in assay [9] were 255 nM and 229 nM, respectively.

Take `CCN1c2ncc(CCOc3cccc4c3ccc[n+]4[O-])cc2C(=O)Nc2c(C)cc(F)nc21` [compound 23, 5,11-Dihydro-11-ethyl-2-fluoro-4-methyl-8-{2-{(1-oxido-5-quinolinyl)-oxy}ethyl}-6H-dipyrido[3,2-b:2′,3′-e][1,4]diazepin-6-one]: the IC50 in assay [1] was 6.1 nM; in [4] it was 105 nM; in [5], 5610 nM; in [6], 247 nM.

With `CCN1c2nc(Cl)ccc2NC(=O)c2cc(CCOc3cc[n+]([O-])c4ccccc34)cnc21` [compound 22, 2-Chloro-5,11-dihydro-11-ethyl-8-{2-{(1-oxido-4-quinolinyl)-oxy}ethyl}-6H-dipyrido[3,2-b:2′,3′-e][1,4]diazepin-6-one], the IC50 in assay [1] worked out at 45 nM; in assay [4], 2490 nM; in assay [5], 2990 nM; in [6], 336 nM.
